Experimental data reported in patent US20140315812A1, “AMORPHOUS EZATIOSTAT ANSOLVATE” (Telik, Inc., priority 2011, published 2014).
Where two headings read alike, the source gives them in different places.

Key:
[1] = test system: HL-60 promyelocytic leukemia cells; conditions: in vitro; cited from earlier work
[2] = in vitro; cited from earlier work
[3] = in vivo; cited from earlier work
[4] = test system: hematopoietic progenitor cells; conditions: normal human peripheral blood; cited from earlier work
[5] = test system: white blood cell production; conditions: cited from earlier work
[6] = ezatiostat hydrochloride in a liposomal injectable formulation, MDS patients; cited from earlier work
[7] = Stability of the amorphous form by visual inspection after storage; assay type: physicochemical
Description: The stability of the amorphous form was evaluated by visual inspection of a sample of the amorphous form prepared above after being stored at about 0-5° C. for about 8 months.

Row | SMILES | differentiation of HL-60 promyelocytic leukemia cells [1] | potentiation of the activity of cytotoxic agents [2] | potentiation of the activity of cytotoxic agents [3] | colony formation of hematopoietic progenitor cells [4] | white blood cell production ([5]; animals in which white blood cells were depleted by treatment with cisplatin or fluorouracil) | white blood cell production ([5]; normal animals) | hematologic improvement [6] | tolerability [6] | visual inspection (color, texture, flowability, crystal formation) ([7]; stored at about 0-5° C. for about 8 months) | time for which the amorphous form is stable ([7]; under 0-5° C.)
1 | CCOC(=O)[C@@H](N)CCC(=O)N[C@@H](CSCc1ccccc1)C(=O)N[C@@H](C(=O)OCC)c1ccccc1 [Ezatiostat] | induce the differentiation | potentiate the activity of cytotoxic agents | potentiate the activity of cytotoxic agents | stimulate colony formation of all three lineages | increase white blood cell production | increase white blood cell production | multi-lineage hematologic improvement | well tolerated |  | 
2 | CCOC(=O)[C@@H](N)CCC(=O)N[C@@H](CSCc1ccccc1)C(=O)N[C@@H](C(=O)OCC)c1ccccc1.Cl [amorphous form, ezatiostat hydrochloride] |  |  |  |  |  |  |  |  | No change with respect to color, texture and flowability of the sample and no crystal formation was observed | at least 8 months
